For series [1] the following is noted: Form A compared with the amorphous form; Form B as stated; cited from earlier work.
Series [2] can be described thus: Storing at room temperature under 0-60% RH for 10 days, analysed by XRD and KF. Format: physicochemical. The note with it: for form found by XRD at the end of the storage time / water content after storage: room temperature.
Method: Copper radiation of 1.5418 Å was used. The sample holder was a round standard aluminum sample holder with rough zero background. The scanning parameters were range: 2-40 degrees two-theta; scan mode: continuous scan; step size: 0.05 deg.; and a rate of 5 deg/min. The water content of the samples was determined by the method known as Karl Fisher (KF). […] Before and after the storage time the sample was analyzed by XRD. […] Before and after the storage time the sample was analyzed by XRD and KF.
Series [3] in a line: Heating of Fluvastatin Sodium Form CVI in oven, analysed by XRD and KF. Format: physicochemical. As to the method:
In the following examples, the forms of Fluvastatin Sodium were identified using a Scintag X-ray powder diffractometer model X'TRA with a solid state detector. Copper radiation of 1.5418 Å was used. The sample holder was a round standard aluminum sample holder with rough zero background. The scanning parameters were range: 2-40 degrees two-theta; scan mode: continuous scan; step size: 0.05 deg.; and a rate of 5 deg/min. The water content of the samples was determined by the method known as Karl Fisher (KF).

Series [4] can be described thus: Storing at room temperature under 100% RH for 10 days, analysed by XRD. Format: physicochemical. As to the method:
In the following examples, the forms of Fluvastatin Sodium were identified using a Scintag X-ray powder diffractometer model X'TRA with a solid state detector. Copper radiation of 1.5418 Å was used. The sample holder was a round standard aluminum sample holder with rough zero background. The scanning parameters were range: 2-40 degrees two-theta; scan mode: continuous scan; step size: 0.05 deg.; and a rate of 5 deg/min. The water content of the samples was determined by the method known as Karl Fisher (KF). […] The samples stored under 100% RH had about 25% water content.

The mark [5] stands for this setting: 0% RH, listed as fluvastatin Sodium Form CVI.

Results on 4 compounds are retold here after patent US20080027125A1 (priority 2006, published 2008).

As to `CC(C)n1c(/C=C/C(O)C[C@@H](O)CC(=O)O)c(-c2ccc(F)cc2)c2ccccc21` (stereo partly drawn) [Form A, fluvastatin sodium], the hygroscopicity entry in series [1] is listed as “less hygroscopic”.

As to `CC(C)n1c(/C=C/C(O)C[C@@H](O)CC(=O)O)c(-c2ccc(F)cc2)c2ccccc21` (stereo partly drawn) [Form CVI, fluvastatin sodium], the “form found by XRD at the end of the storage time” value is listed as “Fluvastatin Sodium Form CVI” in series [2] (setting [5]) and “Fluvastatin Sodium Form CVI” in series [2] (60% RH, listed as fluvastatin Sodium Form CVI). For the same compound, in series [2] (setting [5]), the “water content after storage” value is 3%. The “conversion into fluvastatin sodium Form LXVI” value in series [2] (relative humidity about 0% to about 60%) and in series [3] (heating to about 80° C. for about 1 hour) was ≤ 10% throughout. The “water content (KF) after heating” value is given as “about 2%” in series [3] (80 C, 1 hour) and 2% in series [3] (80 C, 1 hour, listed as Fluvastatin Na Form CVI). Further, the “form found by XRD after heating” value in series [3] (oven, 80 C, 1 hour) is “Fluvastatin Sodium Form CVI”.

For `CC(C)n1c(/C=C/C(O)C[C@@H](O)CC(=O)O)c(-c2ccc(F)cc2)c2ccccc21` (stereo partly drawn) [amorphous fluvastatin sodium, fluvastatin sodium], the “form found by XRD at the end of the storage time” value in series [2] (0% RH) and in series [2] (60% RH) was “amorphous Fluvastatin Sodium” each time. The “water content after storage” value in series [2] (0% RH) is on record as 4%; in series [4], “about 25%”. The “form found by XRD after storage” value in series [4] (room temperature) is listed as “Fluvastatin Na Form LXVI”.

Turning to `CC(C)n1c(/C=C/C(O)C[C@@H](O)CC(=O)O)c(-c2ccc(F)cc2)c2ccccc21` (stereo partly drawn) [form B, fluvastatin sodium], the hygroscopicity entry in series [1] is “low hygroscopicity”.
